From patent US20130202653A1, “3-ARYL-3-HYDROXY-2-AMINO-PROPIONIC ACID AMIDES, 3-HETEROARYL-3-HYDROXY-2-AMINOPROPIONIC ACID AMIDES AND RELATED COMPOUNDS HAVING ANALGESIC AND/OR IMMUNO STIMULANT ACTIVITY” (Allergan, Inc., priority 2005, published 2013)
Where a name gives a salt, the structure may show the parent alone.

How the values were obtained:
[1] = system: tactile allodynia in the rat Chung model; assay: Chung model: reversal of tactile allodynia (von Frey hairs) after spinal nerve ligation; format: in vivo; conditions: Rattus norvegicus, 1 h, peak at 60 min post dose, read-out: Peak % Pain reversal: time post dose
From the text: An art-accepted model or assay for measuring an analgesic effect of a compound in chronic pain (in particular peripheral neuropathy) is the model known as Kim and Chung 1992, Pain […], pp 355-363 (Chung model). This model involves the surgical ligation of the L5 (and optionally the L6) spinal nerves on one side in experimental animals. Rats recovering from the surgery gain weight and display a level of general activity similar to that of normal rats. However, these rats develop abnormalities of the foot, wherein the hindpaw is moderately everted and the toes are held together. More importantly, the hindpaw on the side affected by the surgery appears to become sensitive to low-threshold mechanical stimuli and will perceive pain instead of the faint sensation of touch. This sensitivity to normally non-painful touch, called “tactile allodynia”, develops within the first week after surgery and lasts for at least two months. The allodynia response includes lifting the affected hindpaw to escape from the stimulus, licking the paw and holding it in the air for many seconds. None of these responses is normally seen in the control group.
To produce the tactile allodynia, rats are anesthetized before surgery. The surgical site is shaved and prepared either with betadine or Novacaine. Incision is made from the thoracic vertebra X111 down toward the sacrum. Muscle tissue is separated from the spinal vertebra (left side) at the L4-S2 levels. The L6 vertebra is located and the transverse process is carefully removed with a small rongeur to expose the L4-L6 spinal nerves. The L5 and L6 spinal nerves are isolated and tightly ligated with 6-0 silk thread. The same procedure is done on the right side as a control, except no ligation of the spinal nerves is performed.
After a complete hemostasis is confirmed, the wounds are sutured. A small amount of antibiotic ointment is applied to the incised area, and the rat is transferred to the recovery plastic cage under a regulated heat-temperature lamp.
On the day of the experiment, at least seven days after the surgery, typically six rats per test group are administered the test drugs by intraperitoneal (i.p.) injection or oral gavage (p.o.). For i.p. administration, the compounds are formulated in H2O and given in a volume of 1 ml/kg body weight by injecting into the intraperitoneal cavity. For p.o. administration, the compounds are formulated in H2O and given in a volume of 1 ml/kg body weight using an 18-gauge, 3 inch gavage needle that is slowly inserted through the esophagus into the stomach.
Tactile allodynia is assessed via von Frey hairs, which are a series of fine hairs with incremental differences in stiffness. Rats are placed in a plastic cage with a wire mesh bottom and allowed to acclimate for approximately 30 minutes. To establish the pre-drug baseline, the von Frey hairs are applied perpendicularly through the mesh to the mid-plantar region of the rats' hindpaw with sufficient force to cause slight buckling and held for 6-8 seconds. The applied force has been calculated to range from 0.41 to 15.1 grams. If the paw is sharply withdrawn, it is considered a positive response. A normal animal will not respond to stimuli in this range, but a surgically ligated paw will be withdrawn in response to a 1-2 gram hair. The 50% paw withdrawal threshold is determined using the method of Dixon, W. J., Ann. Rev. Pharmacol. Toxicol. 20:441-462 (1980) hereby incorporated by reference. Tactile allodynia is measured prior to and 15, 30, and 60 minutes after drug administration. The post-drug threshold is compared to the pre-drug threshold and the percent reversal of tactile sensitivity is calculated based on a normal threshold of 15.1 grams.
Table 1 below indicates the degree of pain reversal obtained in the Chung model with exemplary compounds of the invention. […]

spleen size = assay: Immunostimulation: splenic size after systemic administration; format: in vivo; conditions: animals dosed at 200 mg/kg; rats
From the text: An art accepted method for measuring immuno stimulation comprises systemic administration of compounds to assay for the ability to stimulate the immune system, possibly due to nonspecific upregulation of the hemolymphoreticular system. This upregulation could result in increased numbers of lymphocytes of both T- and B-cell lineage.

| melting point [°C] | Compound | inhibition in vivo at 0.1 mg/kg ([1]; ip, 100 μg/kg IP) [%] | inhibition in vivo at 3 mg/kg ([1]; po, 3000 μg/kg PO) [%] | increase in spleen size (spleen size) |
| --- | --- | --- | --- | --- |
| 159.6 | N[C@@H](C(=O)N1CCCC1)[C@@H](O)c1cccnc1 (racemic) (as salt: hydrochloride) [Compound 20, DL-threo-2-Amino-3-hydroxy-3-(pyridin-3-yl)-1-(pyrrolidin-1-yl)propan-1-one dihydrochloride] | – | – | – |
| – | N[C@@H](C(=O)N1CCCC1)[C@@H](O)c1ccncc1 (racemic) [Compound 22, DL-threo-2-Amino-3-hydroxy-3-(pyridin-4-yl)-1-(pyrrolidin-1-yl)propan-1-one dihydrochloride] | 100 | 100 | twentyfive |
